# Source: ChEMBL document CHEMBL5143517, “Discovery and radiosensitization research of ursolic acid derivatives as SENP1 inhibitors” (Eur J Med Chem, 2022)
# The source made the active and inactive calls.
# What was measured:
# HeLa [1] = test: Radiosensitizing activity against human HeLa cells assessed as radiosensitization enhancement ratio at 5 uM pretreated for 24 hrs followed by exposure to 2 to 8 Gy gamma irradiation and measured after 2 weeks by crystal violet staining based analysis (reference value: 1); format: functional
# HeLa [2] = test: Radiosensitizing activity against human HeLa cells assessed as quasi-threshold dose at 5 uM pretreated for 24 hrs followed by exposure to 2 to 8 Gy gamma irradiation and measured after 2 weeks by crystal violet staining based analysis (reference value: 1.72 Gy); format: functional
# [3] = molecular target: T1, Sentrin-specific protease 1 (Homo sapiens, UniProt Q9P0U3); test: Inhibition of recombinant human SENP1 catalytic domain using RanGAP1 as substrate preincubated for 10 mins followed by substrate addition and measured after 30 mins by Western blot analysis
# T1 sequence (Q9P0U3 whole entry): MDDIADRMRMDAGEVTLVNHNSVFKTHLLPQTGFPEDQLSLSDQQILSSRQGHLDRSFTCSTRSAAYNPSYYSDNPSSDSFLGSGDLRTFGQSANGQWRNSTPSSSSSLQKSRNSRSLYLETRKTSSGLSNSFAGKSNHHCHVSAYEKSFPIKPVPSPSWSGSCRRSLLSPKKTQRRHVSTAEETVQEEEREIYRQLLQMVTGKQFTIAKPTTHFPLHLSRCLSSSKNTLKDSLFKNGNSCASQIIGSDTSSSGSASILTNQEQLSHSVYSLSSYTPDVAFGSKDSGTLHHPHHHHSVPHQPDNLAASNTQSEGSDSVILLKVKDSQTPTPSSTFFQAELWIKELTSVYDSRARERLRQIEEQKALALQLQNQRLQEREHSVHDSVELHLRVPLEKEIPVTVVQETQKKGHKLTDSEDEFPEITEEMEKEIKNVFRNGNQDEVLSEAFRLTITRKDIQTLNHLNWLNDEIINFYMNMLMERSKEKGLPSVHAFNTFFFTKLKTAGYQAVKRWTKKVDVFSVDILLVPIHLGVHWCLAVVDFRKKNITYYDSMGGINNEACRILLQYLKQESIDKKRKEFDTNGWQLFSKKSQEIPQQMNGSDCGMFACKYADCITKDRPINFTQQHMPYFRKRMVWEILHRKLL
# HeLa [4] = test: Radiosensitizing activity against human HeLa cells assessed as reduction in cell survival fractions at 5 uM pretreated for 24 hrs followed by exposure to 4 to 8 Gy gamma irradiation and measured after 2 weeks by crystal violet staining based analysis; format: functional
# HeLa [5] = test: Radiosensitizing activity against human HeLa cells assessed as average lethal dose at 5 uM pretreated for 24 hrs followed by exposure to 2 to 8 Gy gamma irradiation and measured after 2 weeks by crystal violet staining based analysis (reference value: 1.47 Gy); format: functional
# [6] = Cytotoxicity against human HeLa cells assessed as inhibition of cell growth incubated for 72 hrs by CCK-8 assay; format: toxicity, cell-based
SMILES,Ratio (HeLa [1]),LD (HeLa [2]),IC50 [3],Activity (HeLa [4]),LD (HeLa [5]),IC50 at 72 h [6]
C[C@H]1[C@H](C)CC[C@]2(C(=O)O)CC[C@]3(C)C(=CC[C@@H]4[C@@]5(C)CC[C@H](O)C(C)(C)[C@@H]5CC[C@]43C)[C@H]12 [URSOLIC ACID],1.22,1.77 Gy,2.58 µM,Active,1.2 Gy,
CNC(=O)CNC(=O)[C@]12CC[C@@H](C)[C@H](C)[C@H]1C1=CC[C@@H]3[C@@]4(C)CC[C@H](O)C(C)(C)[C@@H]4CC[C@@]3(C)[C@]1(C)CC2,,1.92 Gy,,Active,1.02 Gy,> 20 µM
C[C@H]1[C@H](C)CC[C@]2(C(=O)OCC(=O)O)CC[C@]3(C)C(=CC[C@@H]4[C@@]5(C)CC[C@H](O)C(C)(C)[C@@H]5CC[C@]43C)[C@H]12,,2.07 Gy,,Active,1.26 Gy,> 20 µM
COC(=O)[C@@H]1CCCN1CCOC(=O)[C@]12CC[C@@H](C)[C@H](C)[C@H]1C1=CC[C@@H]3[C@@]4(C)CC[C@H](O)C(C)(C)[C@@H]4CC[C@@]3(C)[C@]1(C)CC2,,,,,,> 20 µM
CNC(=O)CN(C)C(=O)[C@]12CC[C@@H](C)[C@H](C)[C@H]1C1=CC[C@@H]3[C@@]4(C)CC[C@H](OC(C)=O)C(C)(C)[C@@H]4CC[C@@]3(C)[C@]1(C)CC2,,,,,,> 20 µM
CC(=O)O[C@H]1CC[C@]2(C)[C@H]3CC=C4[C@@H]5[C@@H](C)[C@H](C)CC[C@]5(C(=O)NCCBr)CC[C@@]4(C)[C@]3(C)CC[C@H]2C1(C)C,,,,,,> 20 µM
C[C@H]1[C@H](C)CC[C@]2(C(=O)N(C)CC(=O)O)CC[C@]3(C)C(=CC[C@@H]4[C@@]5(C)CC[C@H](O)C(C)(C)[C@@H]5CC[C@]43C)[C@H]12,,,,,,> 20 µM
C[C@H]1[C@H](C)CC[C@]2(C(=O)NCC(=O)NCC(O)CO)CC[C@]3(C)C(=CC[C@@H]4[C@@]5(C)CC[C@H](O)C(C)(C)[C@@H]5CC[C@]43C)[C@H]12 (stereo partly drawn),,,,,,> 20 µM
